# Reference: patent US9145373B2, “Certain kynurenine-3-monooxygenase inhibitors, pharmaceutical compositions, and methods of use thereof” (CHDI FOUNDATION, INC., priority 2008, dated 2015)
# Structures can show the parent of a compound that is named as a salt.
# Target: T1, KMO mouse enzyme (Mus musculus, UniProt Q91WN4)
# T1 construct: KMO enzyme prepared at Evotec from mouse liver (4-6 weeks old) via mitochondria isolation; from tissue; host or cells: mouse liver (4-6 weeks old), mitochondria isolation, prepared at Evotec
# T1 sequence (Q91WN4 whole entry): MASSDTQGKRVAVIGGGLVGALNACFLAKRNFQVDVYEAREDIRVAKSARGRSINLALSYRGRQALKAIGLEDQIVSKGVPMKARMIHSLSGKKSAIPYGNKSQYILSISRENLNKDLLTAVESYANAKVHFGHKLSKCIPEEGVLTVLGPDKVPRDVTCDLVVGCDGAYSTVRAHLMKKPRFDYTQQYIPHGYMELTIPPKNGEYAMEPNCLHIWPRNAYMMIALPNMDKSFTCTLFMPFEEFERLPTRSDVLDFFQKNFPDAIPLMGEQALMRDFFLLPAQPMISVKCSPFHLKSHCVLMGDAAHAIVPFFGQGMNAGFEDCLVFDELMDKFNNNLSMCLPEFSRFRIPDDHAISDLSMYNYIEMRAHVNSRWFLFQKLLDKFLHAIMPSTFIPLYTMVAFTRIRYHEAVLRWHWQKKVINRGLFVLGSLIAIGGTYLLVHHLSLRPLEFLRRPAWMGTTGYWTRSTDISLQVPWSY
# Experiment: KMO mouse enzyme assay: L-Kynurenine hydroxylation to 3-Hydroxy-Kynurenine monitored by LC/MS (MRM)
# Assay type: biochemical
# Settings: compound at 10 μM, KMO enzyme from mouse liver mitochondria; for inhibition at 10 µM: read-out: INH.Mouse @ 10 μM
# Protocol: A method of monitoring L-Kynurenine (KYN) hydroxylation to form 3-Hydroxy-Kynurenine (3OH-KYN) by LC/MS is described. Product is quantified by multiple reaction monitoring (MRM method).
# • Compound: Stock concentrations: 10 mM in 100% DMSO • Enzyme: KMO enzyme prepared at Evotec from mouse liver (4-6 weeks old) via mitochondria isolation as described in the literature • Substrate: L-Kynurenine (Sigma: Cat# K3750, stock concentration: 10 mM in 100 mM potassium phosphate buffer, pH 7.4) Assay Conditions: […]
Structure (SMILES),inhibition at 10 µM,INH.Mouse @ 10 μM
Cc1nc(C(=O)O)cc(-c2cccc(Cl)c2)n1 [6-(3-Chloro-phenyl)-2-methyl-pyrimidine-4-carboxylic acid],100%,–
"O=C(Nc1nncs1)c1cc(-c2ccc(Cl)c(Cl)c2)ncn1 [6-(3,4-Dichloro-phenyl)-pyrimidine-4-carboxylic acid [1,3,4]thiadiazol-2-ylamide]",100%,–
"O=C(Nc1cccnc1)c1cc(-c2ccc(Cl)c(Cl)c2)ncn1 [6-(3,4-Dichloro-phenyl)-pyrimidine-4-carboxylic acid pyridin-3-ylamide]",83.5%,–
O=C(Nc1ccncc1)c1cc(-c2cccc(Cl)c2)ncn1 [6-(3-Chloro-phenyl)-pyrimidine-4-carboxylic acid pyridin-4-ylamide],100%,–
O=C(Nc1cnccn1)c1cc(-c2cccc(Cl)c2)ncn1 [6-(3-Chloro-phenyl)-pyrimidine-4-carboxylic acid pyrazin-2-ylamide],100%,–
O=C(Nc1cccnc1)c1cc(-c2cccc(Cl)c2)ccn1 [4-(3-Chloro-phenyl)-pyridine-2-carboxylic acid pyridin-3-ylamide],52.3%,–
C[C@@H](NC(=O)c1cc(-c2cccc(Cl)c2)ncn1)c1ccccc1 [6-(3-Chloro-phenyl)-pyrimidine-4-carboxylic acid ((R)-1-phenyl-ethyl)-amide],99.2%,–
COc1cccc(-c2cc(C(=O)O)ncn2)c1 [6-(3-Methoxy-phenyl)-pyrimidine-4-carboxylic acid],81%,–
Cc1ccccc1NC(=O)c1cc(-c2cccc(Cl)c2)ncn1 [6-(3-Chloro-phenyl)-pyrimidine-4-carboxylic acid o-tolylamide],96.2%,–
"O=C(NCc1ccncc1)c1cc(-c2ccc(Cl)c(Cl)c2)ncn1 [6-(3,4-Dichloro-phenyl)-pyrimidine-4-carboxylic acid (pyridin-4-ylmethyl)-amide]",95.5%,–
"O=C(Nc1ccccc1)c1cc(-c2cc(Cl)cc(Cl)c2)ncn1 [6-(3,5-Dichloro-phenyl)-pyrimidine-4-carboxylic acid phenylamide]",77.6%,–
C[C@@H](O)CNC(=O)c1cc(-c2cccc(Cl)c2)ncn1 [6-(3-Chloro-phenyl)-pyrimidine-4-carboxylic acid ((R)-2-hydroxy-propyl)-amide],74.3%,–
O=C(Nc1ccccc1)c1cc(-c2cccc(Cl)c2)ccn1 [4-(3-Chloro-phenyl)-pyridine-2-carboxylic acid phenylamide],68.4%,–
"Cc1nsc(NC(=O)c2cc(-c3cccc(Cl)c3)ncn2)n1 [6-(3-Chloro-phenyl)-pyrimidine-4-carboxylic acid (3-methyl-[1,2,4]thiadiazol-5-yl)-amide]",85.4%,–
"Cc1ccc(NC(=O)c2cc(-c3ccc(Cl)c(Cl)c3)ncn2)cn1.Cl [6-(3,4-Dichloro-phenyl)-pyrimidine-4-carboxylic acid (6-methyl-pyridin-3-yl)-amide hydrochloride salt]",–,94.0
Cn1ccc(NC(=O)c2cc(-c3cccc(Cl)c3)ncn2)n1 [6-(3-Chloro-phenyl)-pyrimidine-4-carboxylic acid (1-methyl-1H-pyrazol-3-yl)-amide],100%,–
"O=C(Nc1ccc2c(c1)OC(F)(F)O2)c1cc(-c2cccc(Cl)c2)ncn1 [6-(3-Chloro-phenyl)-pyrimidine-4-carboxylic acid (2,2-difluoro-benzo[1,3]dioxol-5-yl)-amide]",97.7%,–
"O=C(Nc1ccon1)c1cc(-c2ccc(Cl)c(Cl)c2)ncn1 [6-(3,4-Dichloro-phenyl)-pyrimidine-4-carboxylic acid isoxazol-3-ylamide]",100%,–
"Cc1noc(C)c1NC(=O)c1cc(-c2cccc(Cl)c2)ncn1 [6-(3-Chloro-phenyl)-pyrimidine-4-carboxylic acid (3,5-dimethyl-isoxazol-4-yl)-amide]",79%,–
O=C(Nc1cccnn1)c1cc(-c2cccc(Cl)c2)ncn1 [6-(3-Chloro-phenyl)-pyrimidine-4-carboxylic acid pyridazin-3-ylamide],100%,–
CCNC(=O)c1cc(-c2cccc(Cl)c2)ncn1 [6-(3-Chloro-phenyl)-pyrimidine-4-carboxylic acid ethylamide],100%,–
"COc1cncc(NC(=O)c2cc(-c3cc(Cl)cc(Cl)c3)ccn2)c1 [4-(3,5-Dichloro-phenyl)-pyridine-2-carboxylic acid (5-methoxy-pyridin-3-yl)-amide]",52.6%,–
NC(=O)c1cc(-c2cccc(Cl)c2)ncn1 [6-(3-Chloro-phenyl)-pyrimidine-4-carboxylic acid amide],77.5%,–
"O=C(Nc1nccs1)c1cc(-c2ccc(Cl)c(Cl)c2)ncn1 [6-(3,4-Dichloro-phenyl)-pyrimidine-4-carboxylic acid thiazol-2-ylamide]",83.7%,–
"Cl.O=C(O)c1cc(-c2cc(Cl)cc(Cl)c2)ccn1 [4-(3,5-Dichloro-phenyl)-pyridine-2-carboxylic acid hydrocloride salt]",–,76.6
CNC(=O)c1cc(-c2cccc(Cl)c2)ncn1 [6-(3-Chloro-phenyl)-pyrimidine-4-carboxylic acid methylamide],100%,–
O=C(Nc1cccnc1)c1cc(-c2ccc(C(F)(F)F)c(Cl)c2)ncn1 [6-(3-Chloro-4-trifluoromethyl-phenyl)-pyrimidine-4-carboxylic acid pyridin-3-ylamide],48.3%,–
O=C(Nc1cccnc1)c1cc(-c2cccc(F)c2)ncn1 [6-(3-Fluoro-phenyl)-pyrimidine-4-carboxylic acid pyridin-3-ylamide],94.8%,–
COC(=O)c1cc(-c2cccc(Cl)c2)ccn1 [4-(3-Chloro-phenyl)-pyridine-2-carboxylic acid methyl ester],100%,–
C[C@H](NC(=O)c1cc(-c2cccc(Cl)c2)ncn1)c1ccccc1 [6-(3-Chloro-phenyl)-pyrimidine-4-carboxylic acid ((S)-1-phenyl-ethyl)-amide],99.8%,–

# More lines, main results first:
inhibition at 10 µM,Structure (SMILES),INH.Mouse @ 10 μM
84.9%,O=C(c1cc(-c2cccc(Cl)c2)ncn1)N1CC[C@H](O)C1 [[6-(3-Chloro-phenyl)-pyrimidin-4-yl]-((S)-3-hydroxy-pyrrolidin-1-yl)-methanone],–
97.1%,O=S(=O)(O)c1cc(-c2cccc(Cl)c2)ncn1 [Sodium; 6-(3-chloro-phenyl)-pyrimidine-4-sulfonate],–
74.5%,COC(=O)c1cc(-c2cccnc2)ncn1 [6-Pyridin-3-yl-pyrimidine-4-carboxylic acid methyl ester trifluoroacetic acid salt],–
96.1%,O=C(O)c1cc(-c2cncc(F)c2)ncn1 [6-(5-Fluoro-pyridin-3-yl)-pyrimidine-4-carboxylic acid],–
99.5%,CS(=O)(=O)NC(=O)c1cc(-c2cccc(Cl)c2)ncn1 [N-[6-(3-Chloro-phenyl)-pyrimidine-4-carbonyl]-methanesulfonamide],–
100%,"O=C(c1cc(-c2cccc(Cl)c2)ncn1)N1CCCc2ccccc21 [[6-(3-Chloro-phenyl)-pyrimidin-4-yl]-(3,4-dihydro-2H-quinolin-1-yl)-methanone]",–
95.4%,NC(=O)[C@H]1CCCN1C(=O)c1cc(-c2cccc(Cl)c2)ncn1 [(R)-1-[6-(3-Chloro-phenyl)-pyrimidine-4-carbonyl]-pyrrolidine-2-carboxylic acid amide],–
96.6%,"O=C(c1cc(-c2ccc(Cl)c(Cl)c2)ccn1)N1CCc2ccccc21 [[4-(3,4-Dichloro-phenyl)-pyridin-2-yl]-(2,3-dihydro-indol-1-yl)-methanone]",–
100%,"O=C(c1cc(-c2ccc(Cl)c(Cl)c2)ncn1)N1CCc2cc(Cl)ccc21 [(5-Chloro-2,3-dihydro-indol-1-yl)-[6-(3,4-dichloro-phenyl)-pyrimidin-4-yl]-methanone]",–
100%,"O=C(c1cc(-c2cccc(Cl)c2)ncn1)N1CCc2ccccc21 [[6-(3-Chloro-phenyl)-pyrimidin-4-yl]-(2,3-dihydro-indol-1-yl)-methanone]",–
100%,"O=C(c1cc(-c2cccc(Cl)c2)ncn1)N1CCc2cnccc21 [[6-(3-Chloro-phenyl)-pyrimidin-4-yl]-(2,3-dihydro-pyrrolo[3,2-c]pyridin-1-yl)-methanone]",–
91.7%,O=C(O)c1cc(-c2cncc(Cl)c2)ncn1 [6-(5-Chloro-pyridin-3-yl)-pyrimidine-4-carboxylic acid],–
91.1%,NC(=O)[C@@H]1CCCN1C(=O)c1cc(-c2cccc(Cl)c2)ncn1 [(S)-1-[6-(3-Chloro-phenyl)-pyrimidine-4-carbonyl]-pyrrolidine-2-carboxylic acid amide],–
94.5%,COC(=O)c1cc(-c2cccc(C(F)(F)F)c2)ncn1 [6-(3-Trifluoromethyl-phenyl)-pyrimidine-4-carboxylic acid methyl ester],–
100%,O=C(c1cc(-c2cccc(Cl)c2)ncn1)N1CCOCC1 [[6-(3-Chloro-phenyl)-pyrimidin-4-yl]-morpholin-4-yl-methanone],–
100%,O=C(c1cc(-c2cccc(Cl)c2)ncn1)N1CCC(O)CC1 [[6-(3-Chloro-phenyl)-pyrimidin-4-yl]-(4-hydroxy-piperidin-1-yl)-methanone],–
85%,"COc1ccc(S(=O)(=O)Nc2cc(-c3ccc(Cl)c(Cl)c3)ncn2)cc1OC [N-[6-(3,4-Dichloro-phenyl)-pyrimidin-4-yl]-3,4-dimethoxy-benzenesulfonamide]",–
100%,"O=C(c1cc(-c2cccc(Cl)c2)ncn1)N1CCc2cc(Cl)ccc21 [(5-Chloro-2,3-dihydro-indol-1-yl)-[6-(3-chloro-phenyl)-pyrimidin-4-yl]-methanone]",–
